Data as given in patent US11673866B2, “Estrogen receptor beta ligands for the prevention and treatment of multiple sclerosis (MS) and other demyelinating, inflammatory and neurodegenerative diseases” (The Board of Trustees of the University of Illinois, priority 2018, dated 2023).
“Also recorded” adds a separate entry of the source.

Tests used:
[1] = tested on: primary oligodendrocyte and oligodendrocyte precursor cells (OL/OPCs); assay: Primary OPC culture differentiation (MBP immunostaining, DAPI); assay type: cell-based, mouse; conditions: for number of MBP+ OLs (differentiated OLs) / branched OLs / complex branching cells: 10 nM, vs vehicle-treated cells; for number of MBP+ OLs (differentiated OLs): 3 days in differentiating media
Method: Primary OPC Cultures: Primary OPCs, isolated from postnatal day P1 C57BL/6 male and female mouse cortices as described previously, were treated with 10 nM ligands in differentiating medium for 3 days (Tiwari-Woodruff et al., 2001; Tiwari-Woodruff et al., 2006). Primary OPC were cultured into 8-well chamber slides (three wells per condition, 2.5×10^5 cells/well) for three days to attach and […] in differentiating media (consisting of DMEM-F12 with triiodothyronine- and thyroxine-containing Sato as well as penicillin, streptomycin, insulin, N-acetyl-L-cysteine, forskolin, ciliary neurotrophic factor, neurotrophin-3, and platelet-derived growth factor receptor α (Tiwari-Woodruff et al., 2001)). A positive control (IndCl), a negative control (Vehicle consisting of the media+EtOH mixture used to dissolve IndCl), and a normal control (differentiating media alone) were used for comparison. At the end of the treatment period, cells were fixed, stained by immunocytochemistry (primary antibody polyclonal chicken myelin basic protein (MBP, Millipore AB9348), shown in green and co-stained with nuclear stain—DAPI shown in blue), and imaged with an Olympus BX61 confocal microscope (Olympus America Inc., Center Valley, Pa.) at 10× magnification (3 images per well). Cells were counted using the ImageJ multipoint tool, and counts were then divided by the image area (mm^2). Average cell density for each condition was then divided by the normal condition cell density. Analysis of OL differentiation consisted of counting the number of MBP+ cells and process extensions that were longer than the respective cell-body diameter and tracking the number of highly branched MBP+ cells (with three or more processes) (Monnerie et al., 2017). Statistics were performed using GraphPad Prism 6 Software (La Jolla, Calif.). One-way ANOVA with Tukey's posthoc test for multiple comparisons was used to generate p-values, and data are presented as mean SEM (with α≤0.05).
Primary OPC cultures were used as a convenient cell-based assay to characterize the proliferation and/or differentiation effects of the new IndCl analogues and to select those most suitable for more extensive studies to be done in comparison with the parental ligand, IndCl. 48 hours after plating OPCs, one of seven IndCl analogues (FIG. 1A) was added to differentiating media at a concentration of 10 nM (De Angelis et al., 2005; Saijo et al., 2011). OPCs were allowed to differentiate for 3 days in the presence of IndCl or analogues, at which point they were fixed, immunostained for OPC/OL markers, and quantified. […] The total number of cells in culture was not altered by any treatment (FIGS. 1B and 1D).

[2] = tested on: corpus callosum axons; assay: Electron microscopy g-ratio of corpus callosum axons of EAE mice; assay type: in vivo, mouse; design: key to Myelination: g-ratio: ‘+’ indicate marker was significantly (p ≤ 0.05) increased in treatment group relative to vehicle; ‘−’ indicates marker was significantly (p ≤ 0.05) decreased in treatment group relative to vehicle; ○: ‘o’ indicate marker did not change relative to vehicle; conditions: vs vehicle; for Myelination: g-ratio: Post (therapeutic, postEAE) treatment of EAE mice
Method: Transmission Electron Microscopy: Mice were perfused with PBS as above followed by paraformaldehyde/glutaraldehyde to preserve ultrastructure and Epon embedded as previously described (Crawford et al., 2010). Serial ultrathin sections of Epon-embedded CC were stained with uranyl acetate-lead citrate were used for electron microscopy analysis (19). G-ratio was measured using Fiji v1.0 Software (NIH).
EM analysis (FIGS. 8A and 8B): Within a given field imaged, g-ratios were calculated by comparing mean ratio of inner axonal diameter to total outer diameter for all myelinated and non-myelinated fibers. […] Treatment with IndCl or either analogue decreased both non-myelinated axons numbers and g-ratio relative to vehicle.

Structure (SMILES) | number of MBP+ OLs (differentiated OLs) [1] | Myelination: g-ratio [2] | g-ratio of callosal axons ([2]; therapeutic treatment (postEAE)) | branched OLs / complex branching cells [1] | MBP+/DAPI ratio (OPC differentiation) ([1]; FIG. 10B)
Oc1ccc(-n2nc3ccc(O)cc3c2Cl)cc1 [IndCl, chloroindazole] | significantly increased | − | decreased |  | 
Oc1ccc(-n2nc3ccc(O)cc3c2Cl)c(Cl)c1 [IndCl-o-Cl, 3-chloro-2-(2-chloro-4-hydroxyphenyl)-2H-indazol-5-ol] | significant increase; also recorded: significantly increased | − |  | increase in the percentage of branched OLs | 
Cc1cc(O)ccc1-n1nc2ccc(O)cc2c1Cl [IndCl-o-Me, 3-chloro-2-(4-hydroxy-2-methylphenyl)-2H-indazol-5-ol] | significant increase; also recorded: significantly increased | − |  | increase in the percentage of branched OLs | greatest increase
